Common to all, as to type: cell-based, pig
In experiment [1] the test system is pgEpiSCs. Kind of experiment: qRT-PCR of marker gene mRNA in pgEpiSCs in modified 3i/LAF medium. As for the experimental part:
Total RNA from pgEpiSCs was extracted using the RNAprep Pure Cell/Bacteria Kit (TIANGEN, DP430), and then reverse transcribed to cDNA using 5×All-in-One RT Master Mix (Abm, G490). PCR was performed on a LightCycler480 II Real Time System (Roche) using 2×RealStar Green Power Mixture (GenStar, A311-05). The data were analyzed using the comparative CT (2^−ΔΔCT) method. ΔCT was calculated using EF1A as an internal control. All experiments were performed in three biological replicates. Primers used for quantitative real-time PCR are listed in the Resource table.
(§1) According to the 3i/LAF medium and its culture method described in Example 1, the inventors tested the requirement for each factor in the 3i/LAF medium for long-term in vitro maintenance of pgEpiSCs on the basis of removing the small molecule inhibitors and cytokines from the culture medium one by one without altering the other conditions.

Experiment [2] has as its system pgEpiSCs. Nature of the experiment: Clone morphology and alkaline phosphatase (AP) staining of pgEpiSCs in modified 3i/LAF medium. To be noted: for clone morphology and AP staining signal after removal of the factor: factor removed from 3i/LAF medium, other conditions unchanged, FIG. 2-1A. How it is done: The alkaline phosphatase staining of pgEpiSC was based on the Alkaline Phosphatase Assay Kit (Millipore, SCR004). Specific experimental steps followed the instructions of the kit.
Epiblast from pig E8-E10 embryos was obtained, and the epiblast was treated with TrypLE™ Express followed by repeatedly blowing to disperse into small cell masses. The cell masses were then inoculated into 12-well cell culture dishes (density of the feeder layer cells were approximately 2×10^5 cells/well) supplemented with 750 μL of 3i/LAF medium (Note: 10 μM Y27632 was added into the 3i/LAF medium), wherein the feeder layer cells were mouse embryonic fibroblasts treated with mitomycin C (Selleckchem, S8146) and cultured in an incubator at 37° C., 100% humidity, and 5% CO2. After 12 hrs, another 750 μL of 3i/LAF medium was added without changing the medium, and after 24 hrs, the medium was replaced with fresh 3i/LAF medium (containing 2 μM Y27632). After that, the medium was replaced with fresh medium every 12 hrs, and after the clones grew for 2-3 days, the morphology of the clones was observed and the clones were digested for passaging.
as §1
Experimental method: pgEpiSCs were cultured with the adjusted medium, after which AP staining was performed on the cultured pgEpiSCs of P1 (indicating the pgEpiSCs after 1 passage in the adjusted medium) or P3 (indicating the pgEpiSCs after 3 passages in the adjusted medium). The specific steps of AP staining are described in the section of Experimental Methods described previously.

Experiment [3] deals with pgEpiSCs. Kind of experiment: Immunostaining of POU5F1 and EOMES in pgEpiSCs. To be noted: factor removed from 3i/LAF medium; FIG. 2-1C. How it is done:
Cells were washed with DPBS (Gibco, C14190500BT) and fixed with 4% paraformaldehyde for 30 min at room temperature, then washed with DPBS again, permeabilized in 0.1% Triton X-100 for 20 min and blocked with 3% BSA for 1 hour. Cells were incubated with primary antibody diluted with 3% BSA at 4° C. overnight. Cells were then washed three times for 3 min each with wash buffer (DPBS containing 0.1% Triton X-100 and 0.1% Tween 20). The secondary antibody was diluted, and incubated with wash buffer for 1 hour at room temperature, then washed three times for 5 min each with wash buffer, and then the nuclei were stained with DAPI (Roche Life Science, 10236276001) for 3 min.
as §1

Experiment [4] concerns pgEpiSCs. Nature of the experiment: Cell proliferation, survival and passaging of pgEpiSCs. To be noted: for proliferation and passaging of pgEpiSCs: FGF2 removed and ERK/MEK inhibitor PD0325901 added, FIG. 2-1I to 2-1K. As for the experimental part:
pgEpiSCs were cultured in a 12-well plate. Cell samples were inoculated at a density of 2× 10^4 cells per well in triplicate. The number of cells was counted every 12 hours. For each time point, cells were digested and counted using a Luna™ Automated Cell Counter, and the results of three counts were averaged and plotted. The cell doubling time was calculated as follows: doubling time (DT)=24×[lg2/(lgNt−lgN0)], where 24 is the cell culture time (hour); Nt is the number of cells cultured for 48 hours; and No is the number of cells recorded at 24 hours.
as §1

The next experiment relates to phosphorylated STAT3. Kind of experiment: Western blot of phosphorylated STAT3 in pgEpiSCs. Conditions: with or without LIF; FIG. 2-1M. How it is done:
Total proteins were extracted from cells by cell lysis buffer (Beyotime Biotechnology, P0013), and nuclear and cytoplasmic proteins were extracted using the nucleus and cytoplasmic protein extraction kit (Beyotime Biotechnology, P0027) supplemented with protease and phosphatase inhibitor cocktail (Beyotime Biotechnology, P1050) to extract nuclear and cytoplasmic proteins. The concentration of extracted proteins was measured using the Bradford Protein Assay Kit (Bio-red, 5000201). An equal amount of proteins (15 μg) was separated by SDS-PAGE gel electrophoresis, which were transferred from the gel to Immobilon-P transfer membrane (Merck Millipore; pore size: 0.45 μm; IPVH00010). The blots were blocked in 5% nonfat powdered milk (Sangon Biotech, A600669-0250) in TBST (20 mM Tris, pH 7.5; 150 mM NaCl; 0.1% Tween 20) at room temperature for 1 hour and then incubated with primary antibodies diluted in 5% nonfat powdered milk in TBST overnight at 4° C. The next day, the blots were rinsed three times with TBST for 5 minutes each time, then incubated together with HRP-coupled secondary antibody diluted in 5% nonfat powdered milk in TBST for 1 hour at room temperature. The blots were developed with SuperSignal West Dura Extended Duration Substrate (Thermo Fisher Scientific, 34075), and the intensity of the bands of the target proteins was analyzed using CLINX chemiluminescence software. […]
Background: A western blot detects proteins with antibodies after separation by electrophoresis.

Setting [5] is: high concentration of CHIR99021 in the medium, FIG. 2-1E, 2-1F, 2-2C, 2-2D.
The mark [6] stands for this setting: factor removed from 3i/LAF medium, FIG. 2-1B.
The mark [7] stands for this setting: inhibitor added into the culture medium, FIG. 2-1H.
Setting [8] is: only IWR-1-endo replaced with XAV939, FIG. 2-2A.
Setting [9] is: only IWR-1-endo replaced with XAV939, FIG. 2-2B.

The source of these data is US20240392240A1, “PIG EMBRYO-DERIVED PLURIPOTENT STEM CELLS AND USE THEREOF” (CHINA AGRICULTURAL UNIVERSITY, priority 2021, published 2024).

Entries after “also recorded” stand apart in the source; their conditions may differ.

For `Cc1c[nH]c(-c2cnc(NCCNc3ccc(C#N)cn3)nc2-c2ccc(Cl)cc2Cl)n1` [CHIR99021], the “expression of cell proliferation-related genes (LIN28A, C-MYC, ETV4, ETV5) after removal of the factor” value with pgEpiSCs [1] (factor removed from 3i/LAF medium, FIG. 2-1D) was “down-regulated”. For the same molecule, in the experiment with pgEpiSCs [1] (setting [5]), the “expression of GATA6 at high concentration” value is recorded as “significant up-regulation; also recorded: up-regulated” and the “expression of pluripotency marker POU5F1 at high concentration” value is recorded as “down-regulation; also recorded: decreased”.

Turning to `O=C(Nc1cccc2cccnc12)c1ccc(N2C(=O)[C@@H]3[C@H](C2=O)[C@@H]2C=C[C@H]3C2)cc1` [IWR-1-endo], the “clone morphology and AP staining signal after removal of the factor” value in the experiment with pgEpiSCs [2] (2-1L) is “poorly defined boundaries of the pgEpiSC clone”. For the same molecule, in the experiment on pgEpiSCs [1] (setting [6]), the “expression of core pluripotency factors (NANOG, POU5F1, SOX2, REX1) after removal of the factor” value is “significant down-regulation”; the “expression of gastrulation marker genes BMP2, BMP4, EOMES and T after removal of the factor” value is recorded as “up-regulation”. In the experiment with pgEpiSCs [3], the “mesodermal and endodermal progenitor marker EOMES immunostaining after removal of the factor” value is reported as “promoting the expression”; the “pluripotency factor POU5F1 immunostaining after removal of the factor” value is on record as “reduced accumulation or heterogeneity”.

`O=C(NOC[C@H](O)CO)c1ccc(F)c(F)c1Nc1ccc(I)cc1F` [PD0325901]: in the experiment with pgEpiSCs [4], the “proliferation and passaging of pgEpiSCs” value is “could not proliferate or be passaged normally”.

In the case of `NC(=O)c1ccc(-c2nc(-c3ccc4c(c3)OCO4)c(-c3ccccn3)[nH]2)cc1` [SB431542], the “clone morphology after addition of the inhibitor” value in the experiment with pgEpiSCs [2] (inhibitor added into the culture medium, FIG. 2-1G, 2-1L) is reported as “irregular clone morphology”. Also, the “level of NANOG after addition of the inhibitor” value in the experiment on pgEpiSCs [1] (inhibitor added into the culture medium, FIG. 2-1G, 2-1H) is recorded as “dramatic decrease”. Besides, in the experiment on pgEpiSCs [1] (setting [7]), the “BMP4 and BMP downstream transcription factors (ID2, ID3) after addition of the inhibitor” value was “significant increase”; the “pluripotency markers (POU5F1, REX1) after addition of the inhibitor” value is “significant decrease”.

On to `COc1ccc(N(C(=O)Oc2c(C)cccc2C)c2ccnc(Nc3ccc(N4CCN(C)CC4)cc3)n2)c(OC)c1` [WH-4-023], for which the “expression of gastrulation marker genes BMP2, BMP4, EOMES and T after removal of the factor” value with pgEpiSCs [1] (setting [6]) is “up-regulation”. Further, in the experiment on pgEpiSCs [3], the “mesodermal and endodermal progenitor marker EOMES immunostaining after removal of the factor” value is “promoting the expression”; the “pluripotency factor POU5F1 immunostaining after removal of the factor” value was “reduced accumulation or heterogeneity”.

`Oc1nc(-c2ccc(C(F)(F)F)cc2)nc2c1CSCC2` [XAV939]: the “passaging at which AP positivity was lost (figure legend)” value with pgEpiSCs [2] (IWR-1-endo replacement with XAV939, FIG. 2-2A) is on record as “around 8 passages of passaging”. In addition, in the experiment on pgEpiSCs [2] (setting [8]), the “maintenance of pluripotency after IWR-1-endo replacement” value is given as “unable to maintain pluripotency for a long period of time” and the “passaging at which AP positivity was lost” value is “about 8 generations of passaging”. Also, in the experiment with pgEpiSCs [1] (setting [9]), the “expression of core pluripotency factor OCT4 (POU5F1) after IWR-1-endo replacement” value is recorded as “down-regulated”; the “expression of pluripotency factors REX1, STELLA and ESRRB after IWR-1-endo replacement” value is “down-regulated”.

Regarding “Activin A: TGF-β superfamily member, cytokine of the 3i/LAF medium (Peprotech, 120-14E)”, in the experiment with pgEpiSCs [1] (factor removed from 3i/LAF medium, FIG. 2-1G, 2-1H), the “level of pluripotency marker NANOG after removal of the factor” value is recorded as “decrease”.

On to “FGF2: fibroblast growth factor, cytokine of the 3i/LAF medium (Peprotech, 100-18B)”, for which the “proliferation and passaging of pgEpiSCs” value in the experiment with pgEpiSCs [4] is “could not proliferate or be passaged normally”. Further, the “proliferative capacity of pgEpiSCs on decreasing the concentration” value with pgEpiSCs [4] (decreasing FGF2 concentration, all other conditions unchanged, FIG. 2-1K) was “significantly reduced”. For the same molecule, the “cell proliferation at high concentrations” value in the experiment on pgEpiSCs [4] (high concentrations of FGF2, FIG. 2-1K) is “faster cell proliferation”.

Turning to “LIF: cytokine of the 3i/LAF medium (PeproTech, 300-05)”, the “clone morphology and AP staining signal after removal of the factor” value with pgEpiSCs [2] (2-1L) is listed as “not necessary to maintain the morphology”. Further, the “detection of phosphorylated STAT3” value with phosphorylated STAT3 was “could be detected only in the presence of LIF”.
